Results on one molecule are retold here after patent US20250073223A1, “TARGETED NANOCARRIERS FOR SYSTEMIC DELIVERY OF IRAK4 INHIBITORS TO INFLAMED TISSUES” (Oregon State University, priority 2023, published 2025).

The test system of series [1] is mice with DSS-induced colitis. Briefly: DSS-induced colitis efficacy (colon length, body weight, colon damage). It is filed as in vivo, C57BL/6 mice. The protocol:
To evaluate the anti-inflammatory action of the developed VCAM1-IRAK4 NC, mice were administered with 5% DSS in drinking water for 7 days and injected IV with the VCAM1-targeted nanocarriers loaded with IRAK4 inhibitor (23 mg kg^−1) on day 0, 2, 4, and 6 of DSS treatment initiation (Y. Lec, K. Sugihara, M. G. Gillilland, 3rd, S. Jon, N. Kamada, J. J. Moon, Nat. Mater. 2020, 19, 118). […] A healthy control group without DSS administration and a DSS-induced colitis group without the injection of VCAM1-IRAK4 NC were also prepared. […] Pharmacother. 2022, 153, 113459).
In vivo evaluation of VCAM1-IRAK4 NC in mice with DSS-induced colitis. […] To evaluate the accumulation of VCAM1-targeted nanocarriers in inflamed tissue, the shaved mice with induced colitis were injected IV with SiNc-loaded IRAK4 NC and VCAM1-IRAK4 NC, and NIR fluorescence images of the excised colons and major organs were recorded 24 hours post-administration. The fluorescence images were obtained using a Pearl Impulse fluorescence imaging system (LI-COR, Lincoln, NE) and the mean fluorescence intensity of region of interest was obtained using Pearl Impulse Software (LI-COR, Lincoln, NE). […] Colon length without the cecum was measured, and colon tissues were gently washed with PBS. […] NucBlue™ Fixed Cell ReadyProbes™ Reagent (ThermoFisher Scientific, Waltham, MA, USA) was used to stain the nuclei. […]

For series [2] the following is noted: cited from earlier work.

Molecule `CC[C@@H]1[C@H](F)C(=O)N[C@@H]1COc1nccc2cc(C(N)=O)c(OC)cc12` [PF-06650833, zimlovisertib] returned an average colon length in series [1] (free drug in 60% saline, 30% PEG400, 10% DMSO, 23 mg kg^−1, 4 IV injections, healthy 5.97±0.18, DSS saline 4.87±0.12 (FIG. 15A)) of 4.74±0.35 cm. In addition, the “therapeutic effect on colitis” value in series [1] (free drug, 23 mg kg^−1, 4 IV injections every 2 days) was “no noticeable therapeutic effect”. Moreover, the absolute oral bioavailability result in series [2] (oral) is “low”. In series [2] (two phase I clinical trials), the dose-limiting side effects result is on record as “no dose-limiting side effects were observed” and the tolerability result was “well tolerated”.
